Measured values: paper PMC6792352, “Limited Chemical Structural Diversity Found to Modulate Thyroid Hormone Receptor in the Tox21 Chemical Library” (Environmental Health Perspectives, 2019)
Structures can show the parent of a compound that is named as a salt.

Assay: in vitro
Conditions: rat, gh3-tre-luc cells, AC50 (uM) modified / 1000

Row | Compound | CC50 at 24 h [µM]
1 | CC(C)(C)NSc1nc2ccccc2s1 [N-tert-Butyl-2-benzothiazolesulfenamide] | > 90
2 | Cc1cc(O)c(Cl)cc1C [2-Chloro-4,5-dimethylphenol] | > 90
3 | O=C1Cc2ccccc2N1c1c(Cl)cccc1Cl [1-(2,6-Dichlorophenyl)-2-indolinone] | > 90
4 | CC(C)(C)C(=O)C(Cl)Cl [Dichloropinacolin] | > 90
5 | COC1=CC(=O)O[C@@H](CCc2ccccc2)C1 [Dihydrokavain] | > 100
6 | CC(C)OC(=O)C(C(=O)OC(C)C)=C1SC=CS1 [Malotilate] | > 50
7 | C=CCCCCCCCCC=O [Undec-10-enal] | > 90
8 | COc1cccc(OC)c1 [1,3-Dimethoxybenzene] | > 90
9 | FC(F)(F)COCC(F)(F)F [Flurothyl] | > 50
10 | CN(C)C(=O)Nc1ccc(Cl)cc1 [Monuron] | > 90
11 | Cc1cc(N)c2cc(NC(=O)Nc3ccc4nc(C)cc(N)c4c3)ccc2n1 [Aminoquinuride dihydrochloride] | 35
12 | CCCn1cnc2c1c(=O)n(CCCCC(C)=O)c(=O)n2C [Propentofylline] | > 50
13 | COc1cccc2sc(N)nc12 [2-Amino-4-methoxybenzothiazole] | > 90
14 | CC(=O)c1ccccc1 [Acetophenone] | > 90
15 | CC(C)Oc1cccc(NC(=O)c2ccccc2C(F)(F)F)c1 [Flutolanil] | > 90
16 | Cc1ccc(S(=O)(=O)NC(=O)N[C@@H](C)Cc2ccccc2)cc1 [Tosifen] | > 50
17 | COc1cccc(N)c1 [3-Methoxyaniline] | > 90
18 | CC(CCl)OC(C)CCl (centres unmarked) [bis(2-Chloro-1-methylethyl) ether] | > 90
19 | CC(C)=CC(C)(C)C [2,4,4-Trimethyl-2-pentene] | > 90
20 | CCC(=O)NS(=O)(=O)c1ccc(-c2c(-c3ccccc3)noc2C)cc1 [Parecoxib sodium] | > 50
21 | O=S(=O)(O)c1cccc(S(=O)(=O)O)c1 [Disodium benzene-1,3-disulfonate] | > 90
22 | CN1CCCC(CN2c3ccccc3Sc3ccccc32)C1 (centres unmarked) [Pecazine] | 16.4
23 | CC(=O)c1c(C)cc(C(C)(C)C)cc1C [4'-tert-Butyl-2',6'-dimethylacetophenone] | > 90
24 | N=C(N)N1CCc2ccccc2C1 [Debrisoquin sulfate] | > 50
25 | C=C[C@H]1CN2CC[C@H]1C[C@H]2[C@H](OC(=O)OCC)c1ccnc2ccc(OC)cc12 [Quinine ethyl carbonate] | > 50
26 | CC(=C(CCOC(=O)C(C)C)SSC(CCOC(=O)C(C)C)=C(C)N(C=O)Cc1cnc(C)nc1N)N(C=O)Cc1cnc(C)nc1N (stereo in doubt) [Bisibutiamine] | > 50
27 | CCc1cc(C2=C(C(=O)O)N(c3ccccc3C(F)(F)F)S(=O)(=O)c3ccccc32)cc2c1OCO2 [Fandosentan potassium salt] | 8.29
28 | COc1cc(C(=O)NC2CCCNC2)cc(OC)c1OC (centres unmarked) [Troxipide] | > 50

Row | Compound | CC50 at 24 h [µM]
29 | CCCC(O)C(CC)CO (centres unmarked) [2-Ethyl-1,3-hexanediol] | > 90
30 | CCOc1ccc(O)cc1 [4-Ethoxyphenol] | > 90
31 | Cc1c[nH]c2ccccc12 [3-Methylindole] | > 50
32 | CC1(C)O[C@H]2CC(=O)OC[C@]23[C@H]2CC[C@@]4(C)[C@H](c5ccoc5)OC(=O)[C@H]5O[C@]54[C@]2(C)C(=O)C[C@@H]13 [Limoni] | > 50
33 | CC1=C(/C=C/C(C)=C/C=C/C(C)=C/C=O)C(C)(C)CCC1 [Retinal] | 12.4
34 | C[C@@H](O)[C@H]1C(=O)N2C(C(=O)O)=C(S[C@@H]3CN[C@H](CNS(N)(=O)=O)C3)[C@H](C)[C@H]12 [Doripenem] | > 50
35 | OCCSc1ccccc1 [2-Phenylmercaptoethanol] | > 90
36 | Cc1ccc(C(=O)Nc2ccc(S(=O)(=O)O)c3cc(S(=O)(=O)O)cc(S(=O)(=O)O)c23)cc1NC(=O)c1cccc(NC(=O)Nc2cccc(C(=O)Nc3cc(C(=O)Nc4ccc(S(=O)(=O)O)c5cc(S(=O)(=O)O)cc(S(=O)(=O)O)c45)ccc3C)c2)c1 [Suramin] | > 50
37 | Cc1nc2ccccc2s1 [2-Methylbenzothiazole] | > 90
38 | C[C@@H](O)[C@H]1C(=O)N2C(C(=O)O)=C(S[C@@H]3CN[C@H](C(=O)N(C)C)C3)[C@H](C)[C@H]12 [Meropenem] | > 50
39 | Nc1ncnc(Nc2ccc(Cl)cc2)n1 [Chlorazanil] | > 50
40 | O=C1CCCCC1 [Cyclohexanone] | > 100
41 | CC[C@H]1NC(=O)[C@@H](NC(=O)c2ncccc2O)[C@@H](C)OC(=O)[C@H](c2ccccc2)NC(=O)[C@@H]2CC(=O)CCN2C(=O)[C@H](Cc2ccccc2)N(C)C(=O)[C@@H]2CCCN2C1=O [Virginiamycin S1] | > 50
42 | CC(C)N1CCN(c2ccc(OC[C@H]3CO[C@](Cn4cncn4)(c4ccc(Cl)cc4Cl)O3)cc2)CC1 (racemic) [Terconazole] | 5.35
43 | c1ccc(-c2ccccn2)nc1 [2,2'-Bipyridine] | > 90
44 | NC1CCN(c2cccc(Cl)n2)CC1 [SR 57227A hydrochloride] | 24.7
45 | CC(CN(C)C)CN1c2ccccc2Sc2ccc(C(F)(F)F)cc21 (centres unmarked) [Trifluomeprazine 2-butenedioate] | 9.4
46 | O=C(c1ccc(O)c(O)c1)c1ccc(O)cc1O [2,3',4,4'-Tetrahydroxybenzophenone] | 49.5
47 | CO/N=C(\C(=O)N[C@@H]1C(=O)N2C(C(=O)O)=C(CSc3nc(C)c(CC(=O)O)s3)CS[C@H]12)c1csc(N)n1 [Cefodizime sodium] | > 50
48 | CCOCC(C)O (centres unmarked) [1-Ethoxy-2-propanol] | > 90
49 | C#C[C@]1(OC(C)=O)CC[C@H]2[C@@H]3CCC4=CC(=O)CC[C@@H]4[C@H]3CC[C@@]21C [Norethindrone acetate] | > 50
50 | CCC(C)COC(C)=O (centres unmarked) [2-Methylbutyl acetate] | > 90
51 | C=C1/C(=C\C=C2/CCC[C@]3(C)[C@@H]([C@H](C)/C=C/[C@H](C)C(C)C)CC[C@@H]23)C[C@@H](O)C[C@@H]1O [1-alpha-Hydroxyergocalciferol] | 37.5
52 | CC(=O)C(=O)O [Pyruvic acid] | > 90
53 | C=CCN(C1=NCCN1)c1c(Cl)cccc1Cl [Alinidine] | > 50
54 | Cc1ccccc1/N=N/c1ccc(/N=N/c2c(O)ccc3ccccc23)c(C)c1 [C.I. Solvent Red 24] | > 50
55 | CCCC(=O)O[C@]1(C(=O)COC(C)=O)CC[C@H]2[C@@H]3C[C@H](F)C4=CC(=O)C=C[C@]4(C)[C@@]3(F)[C@@H](O)C[C@@]21C [Difluprednate] | > 50

Same assay, conditions: rat, gh3-tre-luc cells, AC50 (uM) modified / 1000, Tox21_110001=Tox21_111863; viability, 1 nM T3 present, 24 h

Row | Compound | CC50 at 24 h [µM]
56 | CCCCCCCCCC(=O)O[C@H]1CC[C@H]2[C@@H]3CCC4=CC(=O)CC[C@]4(C)[C@H]3CC[C@]12C [Testosterone decanoate] | > 50

Same assay, conditions: rat, gh3-tre-luc cells, AC50 (uM) modified / 1000, Tox21_110001=Tox21_200355; viability, 1 nM T3 present, 24 h

Row | Compound | CC50 at 24 h [µM]
57 | CCBr [Bromoethane] | > 90

Same assay, conditions: rat, gh3-tre-luc cells, AC50 (uM) modified / 1000, Tox21_110001=Tox21_200362; viability, 1 nM T3 present, 24 h

Row | Compound | CC50 at 24 h [µM]
58 | CC(Cl)CCl (centres unmarked) [1,2-Dichloropropane] | > 90

Same assay, conditions: rat, gh3-tre-luc cells, AC50 (uM) modified / 1000, Tox21_110001=Tox21_200535; viability, 1 nM T3 present, 24 h

Row | Compound | CC50 at 24 h [µM]
59 | O=CC(Br)(Br)Br [Tribromoacetaldehyde] | 25.5

Same assay, conditions: rat, gh3-tre-luc cells, AC50 (uM) modified / 1000, Tox21_110001=Tox21_201837; viability, 1 nM T3 present, 24 h

Row | Compound | CC50 at 24 h [µM]
60 | CN(C)P(=O)(N(C)C)N(C)C [Hexamethylphosphoramide] | > 90

Same assay, conditions: rat, gh3-tre-luc cells, AC50 (uM) modified / 1000, Tox21_110001=Tox21_202245; viability, 1 nM T3 present, 24 h

Row | Compound | CC50 at 24 h [µM]
61 | OCCCCO [1,4-Butanediol] | > 90

Same assay, conditions: rat, gh3-tre-luc cells, AC50 (uM) modified / 1000, Tox21_110001=Tox21_400081; viability, 1 nM T3 present, 24 h

Row | Compound | CC50 at 24 h [µM]
62 | CCOP(=O)(O)N(c1ccc(SC)c(C)c1)C(C)C [Fenamiphos] | > 90
